From ChEMBL document CHEMBL1146342, “Respiratory syncytial virus fusion inhibitors. Part 4: optimization for oral bioavailability” (Bioorg Med Chem Lett, 2007)

What was measured:
in vitro = conditions: human, Caco-2, permeability
in vivo [1] = conditions: dog, plasma, po, 0.5 mg/kg
in vivo [2] = conditions: cynomolgus monkey, plasma, po, 0.5 mg/kg
in vivo [3] = conditions: rat, plasma, po, 5 mg/kg
in vivo [4] = conditions: mouse, plasma, po, 10 mg/kg
physchem = conditions: octanol/water, pH 6.5

SMILES | Papp (in vitro) | AUC (in vivo [1]) | AUC (in vivo [2]) | AUC (in vivo [3]) | AUC (in vivo [4]) | logD (physchem)
CC(C)(C)n1c(=O)n(Cc2nc3ccccc3n2CCCC#N)c2cnccc21 | 21.4 ×10⁻⁶ cm/s | – | – | – | – | –
N#CCCCn1c(Cn2c(=O)n(CC(F)(F)F)c3ccncc32)nc2ccccc21 | 19.7 ×10⁻⁶ cm/s | – | – | – | – | –
CS(=O)(=O)CCCn1c(Cn2c(=O)n(CC(F)(F)F)c3ccncc32)nc2ccccc21 | 3.6 ×10⁻⁶ cm/s | 307 ng·h/mL | 185 ng·h/mL | 40 ng·h/mL | 1430 ng·h/mL | –
O=c1n(Cc2nc3ccccc3n2CCCCF)c2cnccc2n1CC(F)(F)F | 24.5 ×10⁻⁶ cm/s | – | – | – | – | –
N#CCCCn1c(Cn2c(=O)n(C3CC3)c3ccncc32)nc2ccccc21 | – | 755 ng·h/mL | 270 ng·h/mL | 973 ng·h/mL | 600 ng·h/mL | 2.1
CC(C)n1c(=O)n(Cc2nc3ccccc3n2CCCC#N)c2cnccc21 | 16.9 ×10⁻⁶ cm/s | – | – | – | – | –
CCS(=O)(=O)CCCn1c(Cn2c(=O)n(CC(F)(F)F)c3ccncc32)nc2ccccc21 | – | 438 ng·h/mL | 118 ng·h/mL | 133 ng·h/mL | 2000 ng·h/mL | –
